Measurements taken from patent US5688767A, “Treatment of endotoxin-associated disorders with cationic peptides” (priority 1996, dated 1997).
In brackets after ≈: the same amount, converted by molar mass.

Experiments:
E. coli = assay: microbe, parasite or virus in culture; format: cell-based, Escherichia coli
Method: The minimum inhibitory concentrations of (MIC) of CEME, CEMA and melittin were determined for a number of different bacteria (Table 2). Briefly, cells were grown overnight at 37° C. in LB-S (Luria broth without any salt supplement) and diluted one in 10,000 in the same medium to give concentrations of about 10^4 to 10^5 CFU/ml. The broth dilutions were set up in a 96 well microtiter plate by putting 200 μl of LB-S containing the initial concentration of antibiotic or compound in column 1 and 100 μl of the same medium in columns 2-12. The compounds were diluted by taking 100 μl of broth from column 1 and mixing it with column 2, resulting in a one in two dilution. This was continued to column 10. Finally, 10 μl of bacteria were pipetted into columns 1-11, and the plates incubated overnight at 37° C. The next day the plates were scored for growth in the wells, and the MIC determined.
Bacteria included the Bort strain of E. coli (Bortolussi, et al., Inf. Immun., 25:293, 1979) that was originally derived from a case of neonatal meningitis, and which is therefore considered a relevant pathogenic strain to study, and the 0111:B4 strain of E. coli (kindly provided by Dr. D. Morrison) which is a standard source of endotoxin. (Kelly, et al., Inf. Immun., 59:4491, 1991). In addition, P. aeruginosa PA01 strain H103, P. aeruginosa M2, P. aeruginosa K799, Eschericha coli UB 1005, Enterobacter cloacae 218S, Salmonella typhimurium MS7953s, Klebsiella pneumoniae ATCC 13883, Xanthomonas maltophilia ATCC 13637, and Acinetobacter calcoacetious 8193 were employed. LPS was obtained from E. coli Bort by the technique of Westphal and Jann, (Westphal, et al., Acad. Press, Inc. NY., 5:83) and from P. aeruginosa H103 by the method of Darveau and Hancock, (Darveau, et al., J. Bacteriol, 155:831, […]). E. coli 0111:B4 LPS was purchased from Sigma.

[1] = system: P. aeruginosa H309 Whole Cells; assay: DPx binding inhibition using whole cells; set-up: species or system Pseudomonas aeruginosa; settings: DPx at 90-100% binding saturation, average of at least three trials
Method: For DPx binding inhibition assays using whole cells instead of purified LPS, H309 cells were prepared the same way as for the lysozyme lysis assay. The assay consisted of 10 μl of cells at an OD600 of 0.5, 990 μl of 5 mM HEPES pH 7.2 and 5 mM KCN, and the concentration of DPx that gave 90-100% binding saturation. […] Compounds were titrated in, and I50 values were determined as described above.

[2] = system: LPS-induced TNF in RAW 264.7 macrophage cells; assay: Inhibition of LPS-mediated TNF induction in RAW 264.7 macrophages (L929 cytotoxicity readout); format: cell-based, murine; settings: for Unit of TNF induced / Unit of TNF induced (% of control): 100 ng purified E. coli 0111:B4 LPS, 20 μg of peptide or polymyxin B; for block of induction of TNF: 20 μg/ml, E. coli 0111:B4 and E. coli Bort LPS; for block of LPS induction of TNF: added up to 60 minutes after LPS
Method: The effect of CEME and CEMA peptides on LPS-induced TNF in macrophages was examined. RAW 264.7 macrophage cells were grown by seeding 10^6 cells into a 162 cm^2 cell culture flask and incubated at 37° C., 5% CO2 for 1 week. RAW cell media (Dulbecco's Modified Eagle Medium with Hepes buffer 450 ml; 2.4 mM L-glutamine 3 ml (400 mM); Pen/Strep 3 ml (10^4 U/ml of Pen, 1 mg/ml strep); and 10% heat inactivated fetal bovine serum (FBS) 50 ml) was then completely removed from flasks. 10 mls of cell dissociation solution (Sigma) was added to each flask and incubated at 37° C. for 10 minutes. Cells were removed from flasks, diluted in RAW cell media and centrifuged for 6 minutes. The cell pellet was resuspended in 5 ml of media/flask used. […] cell suspension was removed and added to 400 μl of trypan blue and cells were counted using a hemocytometer. The cell suspension was diluted to 1×10^6cells/ml and 1 ml of suspension was added per well of a 24 well plate. The 24 well plates were incubated at 37° C., 5% CO2 overnight for use in the assay.
After an overnight incubation, the media was aspirated from all the wells. 100 μl of Lipopolysaccharide (LPS) was added at 100 ng/100 μl. CEME or CEMA was added at the desired concentration/100 μl to specified wells. […] The plates were then incubated for six hours at 37° C., 5% CO2. The supernatant was then removed from the wells and stored overnight at 4° C. For those wells in which whole bacteria were added directly to the wells, the supernatant was centrifuged in 0.2 μm filter eppendorf tubes for 5 minutes.
The supernatants were then used in cell cytotoxic L929 assay. The samples were transferred to 96 well plates. 50 μl of TNF media was added to all the wells in all the plates except to those wells in the first row. 10 μl of murine TNF standard (20 ng/ml) and 90 μl of TNF media was added in duplicate to the plate and diluted 1:2 down the plate to the second to last row. Test samples (75 μl), comprising of the supernatants from the RAW cell assays, were added to separate rows in duplicate and diluted 1:3 to the second to last rows.
TNF-sensitive L929 mouse fibroblast cells were grown by seeding 10^6 cells into a 162 cm^2 cell culture flask and left to grow for 1 week. L929 cells were removed from the flask with 10 mls of trypsin-EDTA/flask and incubated 3-5 minutes. Cell suspension was diluted and centrifuged for 6 minutes. The pellet was resuspended in 5 mls of fresh L929 media/flask and counted (same as RAW cells). Cell suspension was diluted to 10^6 cells/ml. 100 μl was used to inoculate each well of the 96 well plates with the supernatants. (L929 Growth Media was the same as RAW cell media except instead of FBS, 50 mls of 10% heat inactivated horse serum was utilized; TNF Assay Media was the same as RAW cell media except 4 μg/ml Actinomycin D was added.)
The plates were incubated at 37° C. at 5% CO2 for 2 days. The media was then aspirated and replaced with 100 μl of the dye MTT (0.5 mg/ml) in modified Eagle Medium without phenol red. The plates were then incubated at 37° C. at 5% CO2 for 3 hours. The dye was then removed and replaced with 100 μl of absolute ethanol. The plates were left at room temperature for 10-15 minutes to dissolve the formazan dye crystals.
The plates were read at 570 nm in a ELISA plate reader with 690 nm reference filter. One unit of TNF activity is defined as the amount required to kill 50% of the L929 cells. The TNF level in Units per ml therefore was the reciprocal of the dilution which led to a 50% killing of L929 cells. […]
The murine cell line RAW 264.7 was obtained from ATCC, (Rockville, Md.), and maintained and passaged as described previously (Kelly, et al., supra). TNF induction experiments with LPS were performed as described by Kelly, et al. (supra) Briefly, Dulbecco's modified Eagle medium was aspirated from RAW 264.7 cell grown overnight in 24 well tissue culture plates after seeding with 10^6 cell per ml per well and replaced with fresh medium. […]

[3] = strain UB1005, Parent of DC2 (Table 2)

| Compound | MIC (E. coli; Escherichia coli 0111:B4) [µg/mL] | MIC (E. coli; Escherichia coli Bort) [µg/mL] | MIC (E. coli; Escherichia coli UB1005 (Table 9)) [µg/mL] | MIC (E. coli; strain DC2, Polymyxin sensitive) [µg/mL] | MIC (E. coli; strain SC9251, Parent of SC9252) [µg/mL] | MIC (E. coli; strain SC9252, Polymyxin resistant) [µg/mL] | MIC (E. coli; [3]) [µg/mL] | I50, Value in μg/ml [1] [µg/mL] | IC50 ([1]; read-out: I50, Value in μM) [µM] | concentration of peptide that efficiently reduces LPS-induced TNF ([2]; 100 ng of E. coli 0111:B4 or E. coli Bort LPS, 6 hour) [µg/mL] | Unit of TNF induced [2] [units/ml] | Unit of TNF induced (% of control) [2] [%] | reduction of TNF induction ([2]; 2 μg/ml of peptide, E. coli 0111:B4 LPS 100 ng/ml) | block of induction of TNF [2] | blockage of TNF induction, in words ([2]; 20-50 μg/ml of peptides, E. coli 0111:B4 LPS 100 ng/ml) | TNF produced by peptide alone ([2]; CEMA (20 μg) alone, no LPS) [units/ml] | block of LPS induction of TNF [2] [%] |
| --- | --- | --- | --- | --- | --- | --- | --- | --- | --- | --- | --- | --- | --- | --- | --- | --- | --- |
| CC[C@H](C)[C@H](NC(=O)CNC(=O)[C@@H](NC(=O)[C@H](CCCCN)NC(=O)[C@H](CCCCN)NC(=O)[C@H](Cc1ccccc1)NC(=O)[C@H](CC(C)C)NC(=O)[C@H](CCCCN)NC(=O)[C@H](Cc1c[nH]c2ccccc12)NC(=O)[C@@H](N)CCCCN)[C@@H](C)CC)C(=O)NCC(=O)N[C@@H](C)C(=O)N[C@H](C(=O)N[C@@H](CC(C)C)C(=O)N[C@@H](CCCCN)C(=O)N[C@H](C(=O)N[C@@H](CC(C)C)C(=O)N[C@H](C(=O)N[C@H](C(=O)NCC(=O)N[C@@H](CC(C)C)C(=O)N1CCC[C@H]1C(=O)N[C@@H](C)C(=O)N[C@@H](CC(C)C)C(=O)N[C@@H](CCCCN)C(=O)N[C@@H](CC(C)C)C(=O)N[C@H](C(=O)N[C@@H](CCCCN)C(=O)O)[C@@H](C)O)[C@@H](C)O)[C@@H](C)O)C(C)C)C(C)C [CEMA] | 4 (≈ 1.3 µM) | 8 (≈ 2.61 µM) | 4 (≈ 1.3 µM) | 0.7 (≈ 0.228 µM) | 1.4 (≈ 0.457 µM) | 1.4 (≈ 0.457 µM) | 2.8 (≈ 0.913 µM) | 1.15 ± 0.09 | 0.37 ± 0.03 | ≤ 5 | 566 ± 69 | 5.8 | more than 50% | approximately 100% | almost complete blockage | 50 ± 3 | 99 |
| polymyxin B |  |  |  |  |  |  | 0.5 | 3.7 ± 1.20 |  |  | 573 ± 4 | 5.8 |  | approximately 100% |  |  | 81 |
